The record followed here is patent publication US20180344725A1, “QUINOLONE CHALCONE COMPOUNDS AND USES THEREOF” (priority 2015, published 2018).

For one experiment, the system named is MCF-7. The experiment can be described thus: SRB-based cytotoxicity assay. The class given is cell-based, human. The procedure: (§1) For (anti)proliferation assays, 4,000-5,000 cells/well of the 96-well clustered dish were incubated for 16 hours, as described previously (Hu et al., 2008; Skehan et al., 1990). After 16 hours, culture medium was replaced with fresh medium containing different dilutions of test compounds dissolved in DMSO. Some wells were treated with 100 μl of 10% trichloroacetic acid (TCA) as a negative control and sham (medium with dimethyl sulfoxide; DMSO) treated cells were used as a positive control. After 72 hours post-incubation, medium was removed and cells were fixed with 10% TCA at 4° C. for 1 hour. TCA was removed and cells were washed with cold tap water, and plate was air-dried, followed by addition of 50 μl of 0.4% SRB staining solution to each well. After 30 minutes incubation, SRB staining solution was removed. Cells were washed with 1% acetic acid solution, and then washed with tap water to remove unbound staining solution, followed by air-drying. 200 μl of 10 mM (pH10.5) trizma base buffer was added to each well to solubilise macromolecules. SRB stained macromolecules were determined at a 540 nm wavelength using an automated plate reader (Synergy H4 Hybrid Multi-Mode Microplate Reader, BioTek, Winooski, Vt.). Cell growth (inhibition) was calculated by the following formula:
(§2) % cells proliferation=[(AT−CT)/(ST−CT)]×100
(§3) wherein AT=absorbance of treated cells, CT=absorbance of negative control cells, and ST=absorbance of sham treated cells. IC50 values were calculated from sigmoidal dose-response curves generated by two independent biological replicates, with quadruplicate in each set by using Graph Pad Prism v.5.04 software. […] The combinational index (CI) was calculated as described previously (Chou 2006). If the CI values were less than, equal to or more than 1, it indicates a synergistic, additive or antagonistic effect respectively (Chou 2006). CI values were determined from four independent experiments.

The subject of the next experiment is MDA-MB-231. In words: SRB-based cytotoxicity assay. Type of experiment: cell-based, human. The method, then:
as §1, §2, §3

In another experiment the test system is MDA-MB-468. In words: SRB-based cytotoxicity assay. The class given is cell-based, human. To be noted: MDA-MB-468, SRB, Table 2. The procedure:
as §1, §2, §3

The next experiment relates to 184B5. The experiment can be described thus: SRB-based cytotoxicity assay. The class given is cell-based. To be noted: 184B5 non-cancer. The method, then: as §1, §2, §3
A further experiment has as its system MCF-10A. The experiment can be described thus: SRB-based cytotoxicity assay. The class given is cell-based. To be noted: Homo sapiens, MCF-10A; MCF10A non-cancer; 72 hours; Table 4. The procedure: as §1, §2, §3
A further experiment concerns RPMI-8226BTZR. In words: Killing of bortezomib-resistant multiple myeloma cells. Type of experiment: cell-based. The source says: The RPMI-8226BTZR over-expresses β1, β2 and β5 peptides of the 20S subunit. […] However, RPMI-8226BTZR is sensitive to CTR-20, CTR-21 and CTR-32 (FIG. 36).
For another experiment, the system named is HeLa. The experiment can be described thus: SRB-based cytotoxicity assay. Type of experiment: cell-based. To be noted: Homo sapiens; HeLa; 72 hours; Table 4. The method, then:
as §1, §2, §3

Another experiment relates to RPMI-8226 (myeloma). The experiment can be described thus: SRB-based cytotoxicity assay. Type of experiment: cell-based. To be noted: Homo sapiens, 72 hours, Table 4. The method, then: as §1, §2, §3
The test system of the next experiment is MDA-MB231TaxR. In words: SRB-based cytotoxicity assay, single and combination with paclitaxel. To be noted: TaxR selected in 100.0 nM paclitaxel. The class given is cell-based. The procedure:
All of the cell lines used were purchased from ATCC and cultured in RPMI-1640 supplemented with 10% fetal bovine serum and antibiotics (100 units penicillin/100 μg/ml streptomycin), unless stated otherwise. 1845B5 and MCF-10A non-cancer breast cell lines were cultured in DME/F12 medium supplemented with 10% fetal bovine serum, antibiotics and growth factors. […] The human small cell lung carcinoma H69 cell line and its multidrug-resistant MRP1-overexpressing isogenic H69AR cell line were purchased from ATCC. […] H69 cells grow as large multi-cell aggregates, making it difficult to accurately count cell numbers. […] The IL-6 dependent bortezomib-resistant ANBL6-BR cell line was further supplemented with 1 ng/ml of IL-6. The MCF10AT1 and MCF10CA1a cell lines are isogenic to the MCF10A cell line, and obtained from Dr. Valerie Weaver at the Center for Bioengineering and Tissue Regeneration, UCSF, CA, USA. MCF10AT1 is a premalignant cell line generated by transforming MCF10A with c-Ha-Ras; and MCF10CA1a was isolated by selecting malignant cells after MCF10AT1 cells were engrafted into mice (Liu & Lin 2004; […] et al. 2009). […] The drug-resistant cells were cultured in the absence of drug for at least one passage before carrying out experiments. All cells were maintained in a humidified incubator at 37° C. […] Cell line authentication was performed using short tandem repeat (STR) profiling. For (anti)proliferation assays, 4,000-5,000 cells/well of the 96-well clustered dish were incubated for 16 hours, as described previously (Hu et al., 2008; Skehan et al., 1990). […] Some wells were treated with 100 μl of 10% trichloroacetic acid (TCA) as a negative control and sham (medium with dimethyl sulfoxide; DMSO) treated cells were used as a positive control. […] TCA was removed and cells were washed with cold tap water, and plate was air-dried, followed by addition of 50 μl of 0.4% SRB staining solution to each well. After 30 minutes incubation, SRB staining solution was removed. Cells were washed with 1% acetic acid solution, and then washed with tap water to remove unbound staining solution, followed by air-drying. 200 μl of 10 mM (pH10.5) trizma base buffer was added to each well to solubilise macromolecules. […] Cell growth (inhibition) was calculated by the following formula: % cells proliferation=[(AT-CT)/(ST-CT)]×100 wherein AT=absorbance of treated cells, CT=absorbance of negative control cells, and ST=absorbance of sham treated cells. […] The combinational index (CI) was calculated as described previously (Chou 2006). […] CI values were determined from four independent experiments.

[1] abbreviates: Homo sapiens, 72 hours, Table 4.

One may read the IC50 as the concentration at which inhibition is half-maximal. For `CCN(CC)CCCC(C)Nc1ccnc2cc(Cl)ccc12` (stereo not shown) [Chloroquine, reference compound], the IC50 with MCF-7 (Homo sapiens, MCF7, MCF-7, SRB, Table 2) came out at 38400 nM; in the experiment on MDA-MB-231 (Homo sapiens, MDA-MB-231, SRB, Table 2) it was 22500 nM; with MDA-MB-468 (Homo sapiens), 28600 nM; in the experiment on 184B5 (Homo sapiens, SRB, Table 2), 76100 nM.

`COc1ccc(OC)c(C(=O)/C=C/c2cc3cc(OC)ccc3[nH]c2=O)c1` [CTR-34]: the half-maximal inhibitory concentration (IC50) with 184B5 (setting [1]) turned out to be 1160 ± 100 nM; in the experiment with MCF-10A, 980 ± 40 nM.

Consider `CC(C)C[C@H](NC(=O)[C@H](Cc1ccccc1)NC(=O)c1cnccn1)B(O)O` [bortezomib, reference compound], for which the “resistance of RPMI-8226BTZR compared to RPMI-8226 parental cells” value in the experiment with RPMI-8226BTZR was “approximately 28 fold”.

For the compound `CN(C)CC[C@H](CSc1ccccc1)Nc1ccc(S(=O)(=O)NC(=O)c2ccc(N3CCN(Cc4ccccc4-c4ccc(Cl)cc4)CC3)cc2)cc1[N+](=O)[O-]` [ABT-737, reference compound], the Cell survival rate in the experiment on MDA-MB-231 (single agent 3.125 μM, MDA-MB231) came to 98.61 ± 3.93; in the experiment on MDA-MB-231 (single agent 6.25 μM, MDA-MB231), 91.01 ± 9.81.

On to `COc1cc(F)ccc1C(=O)/C=C/c1cc2ccccc2[nH]c1=O` [CTR-30], for which the values for the IC50 in the experiment on 184B5 (setting [1]) and in the experiment with MCF-10A were 2460 ± 140 nM and 2790 ± 590 nM, respectively.

Take `COc1ccc(C(=O)/C=C/c2cc3ccccc3[nH]c2=O)c(OC)c1` [CTR-27]: the IC50 with MDA-MB-231 (MDA-MB231, 72 hours, Table 4) is 2690 ± 240 nM; in the experiment with 184B5 (setting [1]), 2800 ± 180 nM; with MCF-10A it was 2520 ± 30 nM.

`COc1ccc(F)cc1C(=O)/C=C/c1cc2ccccc2[nH]c1=O` [CTR-29]: the IC50 with 184B5 (setting [1]) is 280 ± 10 nM; in the experiment with MCF-10A it was 270 ± 50 nM.

In the case of `COc1ccccc1C(=O)/C=C/c1cc2cc(C)c(C)cc2[nH]c1=O` [CTR-23], the IC50 stood at 500 ± 100 nM in the experiment on MCF-7 (Homo sapiens, MCF7, 72 hours, Table 4); 1520 ± 120 nM in the experiment with MDA-MB-231 (Homo sapiens, MDA-MB-231, MDA-MB231, 72 hours, Table 4); 1320 ± 30 nM in the experiment with 184B5 (setting [1]); 640 ± 50 nM in the experiment on HeLa; 1120 ± 40 nM with MCF-10A; 1410 ± 150 nM in the experiment with RPMI-8226 (myeloma).

Consider `COc1ccc(OC)c(C(=O)/C=C/c2cc3ccccc3[nH]c2=O)c1` [CTR-26], for which the IC50 worked out at 770 ± 110 nM with 184B5 (setting [1]) and 910 ± 30 nM in the experiment on MCF-10A.

For the compound `COc1cccc(OC)c1C(=O)/C=C/c1cc2ccccc2[nH]c1=O` [CTR-25, (E)-3-(3-(2,6-dimethoxyphenyl)-3-oxoprop-1-enyl)quinolin-2(1H)-one], the values for the IC50 with 184B5 (setting [1]) and in the experiment with MCF-10A were 2640 ± 170 nM and 2640 ± 150 nM, respectively.

With `COc1ccc(C(=O)/C=C/c2cc3cc(OC)ccc3[nH]c2=O)c(OC)c1` [CTR-35], the IC50 came to 4290 ± 60 nM in the experiment on 184B5 (setting [1]) and 2880 ± 540 nM with MCF-10A.

With `COc1cc2cc(/C=C/C(=O)c3ccccc3OC)c(=O)[nH]c2cc1OC` [CTR-24], the IC50 came out at 2370 ± 190 nM with 184B5 (setting [1]) and 2100 ± 390 nM in the experiment with MCF-10A.

Consider `COc1ccc2[nH]c(=O)c(/C=C/C(=O)c3ccc(OC(F)(F)F)cc3OC)cc2c1` [CTR-36], for which the IC50 in the experiment on 184B5 (setting [1]) was 1840 ± 70 nM; with MCF-10A it was 1350 ± 160 nM.

For the compound `CCOc1ccccc1C(=O)/C=C/c1cc2cc(OC)ccc2[nH]c1=O` [CTR-40, (E)-3-(3-(2-ethoxyphenyl)-3-oxoprop-1-enyl)-6-methoxyquinolin-2(1H)-one], the IC50 came out at 100 ± 10 nM with 184B5 (setting [1]) and 70 nM in the experiment on MCF-10A.

`COc1ccc2[nH]c(=O)c(/C=C/C(=O)c3cc(F)ccc3OC)cc2c1` [CTR-37]: the IC50 in the experiment on 184B5 (setting [1]) was determined as 440 ± 20 nM; in the experiment with MCF-10A it was 460 ± 110 nM.

`COc1cc2c(c(OC)c1OC)-c1ccc(OC)c(=O)cc1[C@@H](NC(C)=O)CC2` [Colchicine, reference compound]: the “killing of MDA-MB231TaxR compared with parental MDA-MB231” value with MDA-MB231TaxR is “to the same degree as the parental MDA-MB231 cells”.

Take `COc1ccc2[nH]c(=O)c(/C=C/C(=O)c3ccc(F)cc3OC)cc2c1` [CTR-38]: the IC50 in the experiment with 184B5 (setting [1]) was determined as 160 ± 20 nM; with MCF-10A, 110 nM.

Turning to `N.N.[Cl][Pt][Cl]` [Cisplatin, reference compound], the IC50 came out at 25800 nM in the experiment with MCF-7 (MCF-7, SRB, Table 2); 23600 nM with MDA-MB-231 (MDA-MB-231, SRB, Table 2); 31000 nM in the experiment with MDA-MB-468; 25500 nM with 184B5 (SRB, Table 2).
